In publication PMC11047712, “Synergistic Antioxidant and Anti-Inflammatory Effects of Phenolic Acid-Conjugated Glutamine–Histidine–Glycine–Valine (QHGV) Peptides Derived from Oysters (Crassostrea talienwhanensis)” (Antioxidants, 2024):

What was measured:
[1] = test system: inducible nitric oxide synthase (iNos) mRNA; test: iNos mRNA expression in LPS-induced RAW 264.7 cells (qRT-PCR); type: cell-based, murine; conditions: peptide 500 μM pretreated 2 h, LPS 0.1 μg/mL 24 h, normalized to Gapdh, n = 3
Protocol: (§2) The peptide and control groups were pretreated with 500 and 0 μM of the peptide solution, respectively, for 2 h, followed by stimulation with 0.1 μg/mL of LPS for 24 h. Total cellular RNA was isolated using the RNeasy Mini Kit (Qiagen, Santa Clara, CA, USA). Total RNA was used to synthesize complementary DNA (cDNA) using the PrimeScript™ 1st strand cDNA synthesis kit (TaKaRa, Kusatsu, Japan). […] The mRNA levels of iNos, Cox-2, and Col1a1 were normalized to that of Gapdh, which is a housekeeping gene. The mRNA levels were quantified using the 2^-ddCt method based on the Ct values.

[2] = test system: cyclooxygenase-2 (Cox-2) mRNA; test: Cox-2 mRNA expression in LPS-induced RAW 264.7 cells (qRT-PCR); type: cell-based, murine; conditions: peptide 500 μM pretreated 2 h, LPS 0.1 μg/mL 24 h, normalized to Gapdh, n = 3
Protocol: as §2

[3] = test system: phospho-JNK; test: LPS-induced phosphorylation of JNK in RAW 264.7 cells (Western blot); type: cell-based, murine; conditions: peptide 500 µM 2 h, LPS 0.1 μg/mL 15 min, densitometry relative to JNK, n = 3
Protocol: HaCaT (3.0 × 10^5 cells/well) and RAW 264.7 (1.5 × 10^5 cells/well) cells were seeded in the wells of a six-well plate. […] The cells were then washed with cold PBS and lysed in a cold lysis buffer. Cell debris was removed after centrifugation at 12,000× g for 30 min at 4 °C. Protein concentration was determined using the bicinchoninic acid (BCA) protein assay. […] The membranes were blocked with 5% skimmed milk in Tris-buffered saline–Tween (TBS-T) at room temperature for 1 h. After washing, the membranes were incubated overnight in respective primary antibody solutions (anti-phospho-ERK, anti-phospho-JNK, anti-phospho-p38, anti-collagen I, anti-GAPDH or anti-β-actin antibodies) at 4 °C. The membranes were washed with TBS-T and incubated with a horseradish peroxidase-conjugated secondary antibody solution for 1 h at room temperature. They were washed again with TBS-T and PBS and developed using an enhanced chemiluminescence reagent. Images of the immunoblots were scanned with an iBright™ CL1500 Imaging System (Thermo Fisher Scientific, Waltham, MA, USA). The band intensities of phospho-ERK, phospho-JNK, phospho-p38, and collagen I proteins were quantified by densitometric analysis using the ImageJ software 1.8.0 (National Institutes of Health, NIH, Bethesda, MD, USA). […] The levels of collagen I were normalized to those of GAPDH. Images of raw Western blots are shown in the Supplementary Data.

[4] = test system: phospho-ERK 1/2; test: LPS-induced phosphorylation of ERK in RAW 264.7 cells (Western blot); type: cell-based, murine; conditions: peptide 500 µM 2 h, LPS 0.1 μg/mL 15 min, densitometry relative to ERK, n = 3
Protocol: (§1) HaCaT (3.0 × 10^5 cells/well) and RAW 264.7 (1.5 × 10^5 cells/well) cells were seeded in the wells of a six-well plate. HaCaT and RAW 264.7 cells were treated with the peptide solutions (500 µM) for 24 and 2 h, respectively, and then stimulated with LPS (0.1 μg/mL) for 15 min. The cells were then washed with cold PBS and lysed in a cold lysis buffer. Cell debris was removed after centrifugation at 12,000× g for 30 min at 4 °C. Protein concentration was determined using the bicinchoninic acid (BCA) protein assay. The four-times-concentrated protein-denaturing buffer (1.25 M Tris-HCl (pH 6.8), glycerol, SDS, 2-mercaptoethanol, and 0.4% bromophenol blue) was added to the cell lysate and the mixture was boiled at 100 °C for 5 min. Proteins were separated by electrophoresis on 10% (for MAPKs) or 12% (for collagen) sodium dodecyl sulfate-polyacrylamide gel and electroblotted onto polyvinylidene fluoride membranes. The membranes were blocked with 5% skimmed milk in Tris-buffered saline–Tween (TBS-T) at room temperature for 1 h. After washing, the membranes were incubated overnight in respective primary antibody solutions (anti-phospho-ERK, anti-phospho-JNK, anti-phospho-p38, anti-collagen I, anti-GAPDH or anti-β-actin antibodies) at 4 °C. The membranes were washed with TBS-T and incubated with a horseradish peroxidase-conjugated secondary antibody solution for 1 h at room temperature. They were washed again with TBS-T and PBS and developed using an enhanced chemiluminescence reagent. Images of the immunoblots were scanned with an iBright™ CL1500 Imaging System (Thermo Fisher Scientific, Waltham, MA, USA). The band intensities of phospho-ERK, phospho-JNK, phospho-p38, and collagen I proteins were quantified by densitometric analysis using the ImageJ software 1.8.0 (National Institutes of Health, NIH, Bethesda, MD, USA). To normalize for protein loading, antibodies against β-actin and GAPDH were used, and phospho-ERK 1/2, phospho-JNK, and phospho-p38 phosphorylation levels were expressed relative to those of […]. The levels of collagen I were normalized to those of GAPDH. Images of raw Western blots are shown in the Supplementary Data.

[5] = test system: phospho-p38; test: LPS-induced phosphorylation of p38 in RAW 264.7 cells (Western blot); type: cell-based, murine; conditions: peptide 500 µM 2 h, LPS 0.1 μg/mL 15 min, densitometry relative to p38, n = 3
Protocol: HaCaT (3.0 × 10^5 cells/well) and RAW 264.7 (1.5 × 10^5 cells/well) cells were seeded in the wells of a six-well plate. HaCaT and RAW 264.7 cells were treated with the peptide solutions (500 µM) for 24 and 2 h, respectively, and then stimulated with LPS (0.1 μg/mL) for 15 min. The cells were then washed with cold PBS and lysed in a cold lysis buffer. Cell debris was removed after centrifugation at 12,000× g for 30 min at 4 °C. Protein concentration was determined using the bicinchoninic acid (BCA) protein assay. The four-times-concentrated protein-denaturing buffer (1.25 M Tris-HCl (pH 6.8), glycerol, SDS, 2-mercaptoethanol, and 0.4% bromophenol blue) was added to the cell lysate and the mixture was boiled at 100 °C for 5 min. Proteins were separated by electrophoresis on 10% (for MAPKs) or 12% (for collagen) sodium dodecyl sulfate-polyacrylamide gel and electroblotted onto polyvinylidene fluoride membranes. The membranes were blocked with 5% skimmed milk in Tris-buffered saline–Tween (TBS-T) at room temperature for 1 h. […] The band intensities of phospho-ERK, phospho-JNK, phospho-p38, and collagen I proteins were quantified by densitometric analysis using the ImageJ software 1.8.0 (National Institutes of Health, NIH, Bethesda, MD, USA). […]

[6] = test system: collagen type I alpha 1 chain (Col1a1) mRNA; test: Collagen I (Col1a1) mRNA level in HaCaT cells (RT-PCR); type: cell-based, human; conditions: peptide 500 μM, normalized to Gapdh, n = 3
Protocol: The peptide and control groups were pretreated with 500 and 0 μM of the peptide solution, respectively, for 2 h, followed by stimulation with 0.1 μg/mL of LPS for 24 h. Total cellular RNA was isolated using the RNeasy Mini Kit (Qiagen, Santa Clara, CA, USA). Total RNA was used to synthesize complementary DNA (cDNA) using the PrimeScript™ 1st strand cDNA synthesis kit (TaKaRa, Kusatsu, Japan). The sequences of oligonucleotide primers for amplifying inducible nitric oxide synthase (iNos), cyclooxygenase-2 (Cox-2), and collagen type I alpha 1 chain (Col1a1) synthesized from Bioneer (Daejeon, Republic of Korea) and glyceraldehyde-3-phosphate dehydrogenase (Gapdh) synthesized from Macrogen (Seoul, Republic of Korea) are listed in Table 1. […] The mRNA levels of iNos, Cox-2, and Col1a1 were normalized to that of Gapdh, which is a housekeeping gene. The mRNA levels were quantified using the 2^-ddCt method based on the Ct values.

[7] = ABTS radical scavenging activity test; type: biochemical; conditions: for ABTS radical scavenging activity: 0.01 mM, n = 3; for ABTS radical scavenging activity / IC50: 5 min at room temperature, absorbance 734 nm; for Anti-oxidant Rank (ABTS radical scavenging activity rank) / IC50: Table S1; for Anti-oxidant Rank (ABTS radical scavenging activity rank): rank by IC50, 1 = most active; for IC50: tested 0.000001-1 mM, calculated by GraphPad Prism 5, unit inferred; for ABTS antioxidant activity (in words): various concentrations between 0.000001 and 1 mM
Protocol: The ABTS radical cation solution was prepared by mixing 1 mL of a 14 mM ABTS solution and 1 mL of 4.9 mM potassium persulfate. The mixture reacted in the dark at room temperature for 16 h. The ABTS solution was diluted with PBS (1:50, v/v), and 190 μL of it reacted with 10 μL of the sample solution in a 96-well plate at room temperature for 5 min. The absorbance at 734 nm was measured using a SpectraMax iD3 microplate reader (Molecular Devices, San Jose, CA, USA), and the ABTS radical scavenging activity rate was calculated using the following equation:ABTS radical scavenging activity (%) = 1 − (absorbance of sample/absorbance of water) × 100

[8] = DPPH radical scavenging activity test; type: biochemical; conditions: various concentrations; 0.1 mM DPPH, 30 min in the dark at room temperature, absorbance 517 nm
Protocol: The DPPH method is based on a mechanism similar to the ABTS method. […] In a 96-well plate, 100 μL of the DPPH solution and 100 μL of the sample were treated and incubated at room temperature in the dark for 30 min. Absorbance at 517 nm was then measured using a SpectraMax iD3 microplate reader (Molecular Devices, San Jose, CA, USA). The solvents used for the samples were methanol for peptide samples and ethanol for phenolic acid samples.

[9] = test system: collagen I (COL1A1) protein; test: Collagen I (COL1A1) protein level in HaCaT cells (Western blot); type: cell-based, human; conditions: peptide 500 µM, 24 h, Western blot densitometry normalized to GAPDH, n = 3
Protocol: as §1

[10] = test system: HaCaT cells; test: Cell viability (MTT assay) in HaCaT cells; type: cell-based, human; conditions: 0.032-500 µM, 24 h
Protocol: Cell viability was assessed using an MTT assay. HaCaT cells (1.0 × 10^4 cells/mL) were seeded in a 96-well plate and cultured for 24 h. Thereafter, the cells were treated with the peptide solution (0–500 µM) for 24 h. […] The MTT solution was prepared by dissolving it in phosphate-buffered saline (PBS) at a concentration of 5 mg/mL. 10 μL of the prepared MTT solution was added to each well, and the plate was incubated for 4 h. After removing the culture medium, 200 μL of dimethyl sulfoxide (DMSO) was added to each well to solubilize any deposited formazan. The absorbance at 560 nm was measured using an Epoch microplate Spectrophotometer (BioTek, Winooski, VT, USA).

[11] = test system: intracellular ROS in RAW 264.7 cells; test: LPS-induced intracellular ROS, DCFH-DA fluorescence, in RAW 264.7 cells; type: cell-based, murine; conditions: peptides and carnosine 500 μM pretreated 2 h, then LPS 0.1 μg/mL 24 h, n = 3
Protocol: RAW 264.7 cells (7.5 × 10^4 cells/mL) were seeded on sterile cover slips placed in the wells of a 12-well plate and cultured for 24 h. The cells were pretreated with peptide solutions (500 μM) and carnosine (500 μM) for 2 h and stimulated with LPS (0.1 μg/mL) for 24 h. Subsequently, they were treated with a 10 μM DCFH-DA solution for 30 min and washed with PBS. The washed cells were fixed with a 4% paraformaldehyde solution for 5 min, and intracellular ROS fluorescence was observed using a DMi8 inverted microscope (Leica, Wetzlar, Germany).

C[C@@H]1C[C@H]2[C@@H]3CCC4=CC(=O)C=C[C@]4(C)[C@@]3(F)[C@@H](O)C[C@]2(C)[C@@]1(O)C(=O)CO [DEX, Dexamethasone, reference compound]
reduction of LPS-induced iNos mRNA level [1]: approximately 80% | reduction of LPS-induced Cox-2 mRNA level [2]: ~91% | decrease of p-JNK level [3]: markedly reduced | decrease of p-ERK level [4]: markedly reduced | decrease of p-p38 level [5]: markedly reduced

glycyl-L-histidyl-L-lysine-Cu (II) [GHK-Cu, reference compound]
reduction of LPS-induced iNos mRNA level [1]: 45% | reduction of LPS-induced Cox-2 mRNA level [2]: 24%

N-(1-oxohexadecyl) glycyl-L-histidyl-L-lysine [PTP-1, reference compound]
increase of collagen I mRNA level compared with the negative control group [6]: 135%

β-alanyl-L-histidine [carnosine, reference compound]
reduction of LPS-induced iNos mRNA level [1]: no significant effect | reduction of LPS-induced Cox-2 mRNA level [2]: no significant effect

vanilloyl-QHGV [Va-QHGV]
ABTS radical scavenging activity [7]: 34% | Anti-oxidant Rank (ABTS radical scavenging activity rank) [7]: 4 | IC50 [7]: 16.4 µM | DPPH radical scavenging activity (in words) [8]: did not exhibit antioxidant effects | reduction of LPS-induced iNos mRNA level [1]: did not significantly affect | reduction of LPS-induced Cox-2 mRNA level [2]: 16% | decrease of p-ERK level [4]: 24% | increase of collagen I protein level [9]: 163%

O=C1O[C@H]([C@@H](O)CO)C(O)=C1O [L-ascorbic acid, reference compound]
ABTS radical scavenging activity [7]: 20% | Anti-oxidant Rank (ABTS radical scavenging activity rank) [7]: 7 | IC50 [7]: 23.8 µM

galloyl-QHGV [Ga-QHGV]
ABTS radical scavenging activity [7]: 74% | Anti-oxidant Rank (ABTS radical scavenging activity rank) [7]: 2 | IC50 [7]: 4.58 µM | cytotoxicity (in words) [10]: no cytotoxicity | decrease of intracellular ROS levels compared to the LPS-treated group [11]: reduced LPS-induced ROS levels to the greatest extent | reduction of LPS-induced iNos mRNA level [1]: 60% | reduction of LPS-induced Cox-2 mRNA level [2]: 22% | decrease of p-JNK level [3]: 18% | increase of collagen I mRNA level compared with the negative control group [6]: 140% | increase of collagen I protein level [9]: 354%

caffeoyl-QHGV [Ca-QHGV]
ABTS radical scavenging activity [7]: 33% | Anti-oxidant Rank (ABTS radical scavenging activity rank) [7]: 5 | IC50 [7]: 16.7 µM | reduction of LPS-induced iNos mRNA level [1]: 26% | reduction of LPS-induced Cox-2 mRNA level [2]: 8% | decrease of p-JNK level [3]: 10% | decrease of p-ERK level [4]: 9% | decrease of p-p38 level [5]: 5% | increase of collagen I protein level [9]: 316%

QHGV [glutamine–histidine–glycine–valine]
Anti-oxidant Rank (ABTS radical scavenging activity rank) [7]: 8 | ABTS antioxidant activity (in words) [7]: did not exhibit high antioxidant activity | cytotoxicity (in words) [10]: no cytotoxicity | reduction of LPS-induced iNos mRNA level [1]: reduced | reduction of LPS-induced Cox-2 mRNA level [2]: reduced | increase of collagen I mRNA level compared with the negative control group [6]: 26% | increase of collagen I protein level [9]: 147%

O=C(O)c1cc(O)c(O)c(O)c1 [Gallic acid, gallic acid, reference compound]
Anti-oxidant Rank (ABTS radical scavenging activity rank) [7]: 1 | IC50 [7]: 2.49 µM | ABTS antioxidant activity (in words) [7]: highest antioxidant activity

γ-L-glutamyl-L-cysteinyl-glycine [Glutathione, reference compound]
Anti-oxidant Rank (ABTS radical scavenging activity rank) [7]: 3 | IC50 [7]: 14.7 µM

feruloyl-QHGV [Fe-QHGV]
ABTS radical scavenging activity [7]: 31% | Anti-oxidant Rank (ABTS radical scavenging activity rank) [7]: 6 | IC50 [7]: 17.8 µM | reduction of LPS-induced iNos mRNA level [1]: did not significantly affect | reduction of LPS-induced Cox-2 mRNA level [2]: 11% | decrease of p-JNK level [3]: 23% | increase of collagen I protein level [9]: 457%

sinapoyl-QHGV [Si-QHGV]
ABTS radical scavenging activity [7]: 27% | reduction of LPS-induced iNos mRNA level [1]: did not significantly affect | reduction of LPS-induced Cox-2 mRNA level [2]: 15% | decrease of p-ERK level [4]: 5% | increase of collagen I protein level [9]: 363%

COc1cc(C(=O)O)ccc1O [vanillic acid, reference compound]
DPPH radical scavenging activity (in words) [8]: weak antioxidant activity
